According to paper PMC6628712 (Journal of enzyme inhibition and medicinal chemistry, 2016):
Read-outs that look alike come from different tables or passages of the source.

Columns and labels:
[1] = total plasma, clinically relevant dose as in column Oral Dose; ref [64]–[73]; cited from earlier work
[2] = human, in vivo
[3] = biological target: T1, CYP26B1 (Homo sapiens, UniProt Q9NR63); experiment: Inhibition of CYP26B1-catalyzed tazarotenic acid sulfoxide formation; assay type: biochemical; conditions: recombinant CYP26B1, probe tazarotenic acid sulfoxide formation, ± standard error
T1 sequence (Q9NR63 1-512): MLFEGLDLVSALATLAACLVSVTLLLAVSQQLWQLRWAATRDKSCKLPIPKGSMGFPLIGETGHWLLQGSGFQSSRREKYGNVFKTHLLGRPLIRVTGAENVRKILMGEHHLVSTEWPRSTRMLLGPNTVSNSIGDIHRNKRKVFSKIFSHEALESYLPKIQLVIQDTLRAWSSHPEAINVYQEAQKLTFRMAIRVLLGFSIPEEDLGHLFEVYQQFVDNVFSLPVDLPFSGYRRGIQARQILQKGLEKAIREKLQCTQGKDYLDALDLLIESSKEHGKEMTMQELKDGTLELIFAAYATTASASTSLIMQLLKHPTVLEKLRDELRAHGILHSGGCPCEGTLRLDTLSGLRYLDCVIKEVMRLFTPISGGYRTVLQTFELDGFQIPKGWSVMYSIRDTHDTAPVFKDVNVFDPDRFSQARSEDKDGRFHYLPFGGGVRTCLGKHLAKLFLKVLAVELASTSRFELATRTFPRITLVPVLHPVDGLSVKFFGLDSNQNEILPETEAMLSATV

[4] = biological target: T2, CYP2C8 (Homo sapiens, UniProt P10632); conditions: read-out: CYP2C8 IC50, cited from earlier work
T2 sequence (P10632 1-490): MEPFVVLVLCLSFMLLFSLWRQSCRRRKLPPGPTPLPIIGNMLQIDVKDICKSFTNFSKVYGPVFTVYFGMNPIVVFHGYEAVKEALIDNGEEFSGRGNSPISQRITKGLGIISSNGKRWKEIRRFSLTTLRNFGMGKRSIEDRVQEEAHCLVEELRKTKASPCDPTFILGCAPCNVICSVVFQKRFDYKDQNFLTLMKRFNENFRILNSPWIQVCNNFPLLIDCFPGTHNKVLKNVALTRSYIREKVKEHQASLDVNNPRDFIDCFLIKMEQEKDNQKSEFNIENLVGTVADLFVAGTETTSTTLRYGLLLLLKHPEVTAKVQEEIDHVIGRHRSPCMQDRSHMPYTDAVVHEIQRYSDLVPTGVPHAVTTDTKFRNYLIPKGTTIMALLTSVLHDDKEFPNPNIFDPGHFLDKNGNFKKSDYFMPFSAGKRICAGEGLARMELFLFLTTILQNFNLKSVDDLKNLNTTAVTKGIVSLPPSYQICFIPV

[5] = biological target: T3, CYP26A1 (Homo sapiens, UniProt O43174); experiment: Inhibition of CYP26A1-catalyzed tazarotenic acid sulfoxide formation; assay type: biochemical
T3 sequence (O43174 1-497): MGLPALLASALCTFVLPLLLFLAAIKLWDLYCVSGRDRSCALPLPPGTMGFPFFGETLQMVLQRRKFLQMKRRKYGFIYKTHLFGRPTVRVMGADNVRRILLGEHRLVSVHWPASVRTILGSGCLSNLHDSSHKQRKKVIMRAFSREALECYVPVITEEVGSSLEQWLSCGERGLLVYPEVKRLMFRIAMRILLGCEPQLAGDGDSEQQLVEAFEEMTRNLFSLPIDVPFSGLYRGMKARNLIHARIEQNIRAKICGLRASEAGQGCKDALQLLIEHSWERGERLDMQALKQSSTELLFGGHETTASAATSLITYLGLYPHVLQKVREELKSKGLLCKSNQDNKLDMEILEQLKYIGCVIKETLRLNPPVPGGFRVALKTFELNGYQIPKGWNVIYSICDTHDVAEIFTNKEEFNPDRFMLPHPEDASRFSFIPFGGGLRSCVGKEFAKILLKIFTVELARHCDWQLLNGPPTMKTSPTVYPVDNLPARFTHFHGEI

[6] = system: CYP26A1; conditions: in vitro; ref [97]; cited from earlier work
[7] = patient with acute promyelocytic leukemia, co-administration of oral fluconazole; ref [102]; cited from earlier work
[8] = unbound fraction in plasma; ref [64]–[73]; cited from earlier work
[9] = system: CYP26A1, CYP26B1 or CYP2C8; experiment: In vitro stability of candesartan cilexetil; assay type: in vitro ADME; conditions: 1 μM, 5 nM CYP26A1, CYP26B1 or CYP2C8, NADPH, up to 10 minutes; data not shown
[10] = biological target: T1, CYP26B1; experiment: Spectral binding determination, CYP26B1; conditions: UV-difference spectra
[11] = biological target: T3, CYP26A1; experiment: Spectral binding determination, CYP26A1; conditions: UV-difference spectra
[12] = read-out: CYP26B1 IC50, tazarotenic acid
[13] = CYP26A1 IC50, tazarotenic acid, recombinant CYP26A1, probe tazarotenic acid sulfoxide formation, ± standard error
[14] = substrate amodiaquine, ref [51]
[15] = read-out: CYP26A1 IC50, tazarotenic acid, recombinant CYP26A1, probe tazarotenic acid sulfoxide formation, ± standard error
[16] = substrate montelukast (HLM), ref [44]

| SMILES | Cmax,u [2] | IC50 ([3]; CYP26B1 IC50, tazarotenic acid) | IC50 [5, 13] | Cmax [1] | IC50 [3, 12] | IC50 [4, 14] | fu,plasma [8] | IC50 [5, 15] | also measured |
| --- | --- | --- | --- | --- | --- | --- | --- | --- | --- |
| Clc1cccc(C(c2ccc3[nH]cnc3c2)n2ccnc2)c1 (stereo not shown) [Liarazole] | – | – | – | – | 0.01 ± 0.01 µM | – | – | – | – |
| OC(Cn1cncn1)(Cn1cncn1)c1ccc(F)cc1F [Fluconazole] | 30794 nM | 19.8 ± 3.21 µM | 700 ± 190 nM | 34600 nM | – | – | – | – | IC50 ([4]; substrate amodiaquine, ref [50]): 48.9 µM; Inhibition of CYP26A1-catalyzed 4-hydroxyretinoic acid formation [6]: not be inhibitors; Increase of AUC of orally administered retinoic acid [7]: 4 fold; Increase of Cmax of orally administered retinoic acid [7]: 6 fold |
| C#C[C@]1(O)CC[C@H]2[C@@H]3CCc4cc(O)ccc4[C@H]3CC[C@@]21C [17α-Ethynylestradiol] | 0.00085 nM | – | – | 0.5 nM | 6.73 ± 3.77 µM | 6.54 ± 1.22 µM | 0.002 | 2240 ± 1330 nM | – |
| C[C@@H]1C[C@H]2[C@@H]3CCC4=CC(=O)C=C[C@]4(C)[C@@]3(Cl)[C@@H](O)C[C@]2(C)[C@@]1(O)C(=O)CCl [Mometasone] | 0.0005 nM | – | – | 0.05 nM | 6.81 ± 1.19 µM | 0.813 ± 0.112 µM | 0.010 | 900 ± 80 nM | – |
| CCOc1nc2cccc(C(=O)OC(C)OC(=O)OC3CCCCC3)c2n1Cc1ccc(-c2ccccc2-c2nnn[nH]2)cc1 (stereo not shown) [Candesartan Cilexetil] | – | 0.27 ± 0.06 µM | – | – | – | 0.496 ± 0.19 µM | – | – | Degradation of candesartan cilexetil [9]: Minimal degradation; Binding mechanism, CYP26B1 [10]: No binding spectra could be obtained; IC50 [5]: 410 ± 320 nM |
| CC1(C)CCC(C)(C)c2cc(NC(=O)c3ccc(C(=O)O)cc3)ccc21 [AM80] | – | – | – | – | 9.21 ± 0.83 µM | – | – | 2890 ± 240 nM | – |
| CCC(CC)C(c1ccc(Nc2nc3ccccc3s2)cc1)n1cncn1 (stereo not shown) [Talarazole] | – | – | – | – | 0.001 ± 0.001 µM | – | – | 20 ± 10 nM | – |
| CCOc1nc2cccc(C(=O)O)c2n1Cc1ccc(-c2ccccc2-c2nnn[nH]2)cc1 [Candesartan] | 0.38 nM | 58.3 µM | 25600 ± 25800 nM | 270 nM | – | 36.2 ± 1.7 µM | – | – | – |
| O=C(O)c1ccc2cc(-c3ccc(O)c(C45CC6CC(CC(C6)C4)C5)c3)ccc2c1 [CD437] | – | – | – | – | 0.14 ± 0.05 µM | – | – | 10 ± 10 nM | – |
| CC1(C)CCC(C)(C)c2cc(C#Cc3ccc(C(=O)O)cc3)ccc21 [EC23] | – | – | – | – | 3.45 ± 2.8 µM | – | – | 1600 ± 740 nM | – |
| CCc1oc2ccccc2c1C(=O)c1cc(Br)c(O)c(Br)c1 [Benzbromarone] | 92.4 nM | 7.57 ± 4.93 µM | – | 9240 nM | – | – | 0.010 | – | IC50 [4, 16]: 0.38 µM; IC50 [5]: 630 ± 60 nM |
| C=C(c1ccc(C(=O)O)cc1)c1cc2c(cc1C)C(C)(C)CCC2(C)C [Bexarotene] | – | 1.6 ± 0.27 µM | – | – | – | – | – | – | IC50 [5]: 1310 ± 480 nM |
| CC1(C)CCC(C)(C)c2cc(C3(c4ccc(C(=O)O)cc4)OCCO3)ccc21 [SR11237] | – | – | – | – | 6.86 ± 0.46 µM | – | – | 810 ± 340 nM | – |
| CCC(C)n1ncn(-c2ccc(N3CCN(c4ccc(OCC5COC(Cn6cncn6)(c6ccc(Cl)cc6Cl)O5)cc4)CC3)cc2)c1=O (stereo not shown) [Itraconazole] | 1.80 nM | 0.16 ± 0.02 µM | 550 ± 90 nM | 919 nM | – | – | – | – | IC50 ([4]; substrate paclitaxel, ref Unpublished Data): 2.16 ± 0.41 µM |
| CC1(C)CCC(C)(C)c2cc(C3(c4ccc5cc(C(=O)O)ccc5c4)SCCS3)ccc21 [MM11253] | – | – | – | – | 1.25 ± 0.44 µM | – | – | 20 ± 10 nM | – |

Now from value to molecule, other results behind:

| Cmax,u [2] | IC50 ([3]; CYP26B1 IC50, tazarotenic acid) | IC50 [5, 13] | SMILES | Cmax [1] | IC50 [3, 12] | IC50 [4, 14] | fu,plasma [8] | IC50 [5, 15] | also measured |
| --- | --- | --- | --- | --- | --- | --- | --- | --- | --- |
| 150 nM | – | – | CC(C)c1nc(CN(C)C(=O)N[C@H](C(=O)N[C@@H](Cc2ccccc2)C[C@H](O)[C@H](Cc2ccccc2)NC(=O)OCc2cncs2)C(C)C)cs1 [Ritonavir] | 15300 nM | – | – | – | – | – |
| 38.0 nM | 8.48 ± 1.19 µM | 930 ± 260 nM | CCc1ccc(CCOc2ccc(CC3SC(=O)NC3=O)cc2)nc1 (stereo not shown) [Pioglitazone] | 4490 nM | – | 11.7 ± 4 µM | – | – | – |
| 6.40 nM | 14 ± 1.11 µM | 21400 ± 20300 nM | CC/C(=C(\c1ccccc1)c1ccc(OCCN(C)C)cc1)c1ccccc1 [Tamoxifen] | 323 nM | – | 3.34 ± 1.55 µM | 0.020 | – | Inhibition of CYP26A1-catalyzed 4-hydroxyretinoic acid formation [6]: not be inhibitors |
| 3.40 nM | 8.47 ± 6.64 µM | 11900 ± 1020 nM | CN(CCOc1ccc(CC2SC(=O)NC2=O)cc1)c1ccccn1 (stereo not shown) [Rosiglitazone] | 1670 nM | – | 10.8 ± 3.1 µM | 0.002 | – | – |
| 0.45 nM | 76.2 ± 148 µM | 1920 ± 390 nM | O=c1c(O)c(-c2ccc(O)c(O)c2)oc2cc(O)cc(O)c12 [Quercetin] | 50.9 nM | – | – | 0.009 | – | Inhibition of CYP26A1-catalyzed 4-hydroxyretinoic acid formation [6]: not be inhibitors |
| 2.60 nM | 0.61 ± 0.25 µM | 7730 ± 2690 nM | CCOc1cc(CC(=O)N[C@@H](CC(C)C)c2ccccc2N2CCCCC2)ccc1C(=O)O [Repaglinide] | 104 nM | – | – | 0.026 | – | IC50 [4, 16]: 11.1 µM |
| 3.00 nM | 0.71 ± 0.23 µM | 60 ± 20 nM | COc1cc(C(=O)NS(=O)(=O)c2ccccc2C)ccc1Cc1cn(C)c2ccc(NC(=O)OC3CCCC3)cc12 [Zafirlukast] | 1120 nM | – | 0.644 ± 0.273 µM | 0.010 | – | Binding mechanism, CYP26A1 [11]: No binding spectra could be obtained; Selectivity for CYP26A1 (versus CYP26B1) ([5]; ratio of IC50 values, tazarotenic acid probe): 11.8 fold |
| 8.90 nM | 0.61 ± 0.09 µM | 120 ± 20 nM | CC(C)(O)c1ccccc1CC[C@@H](SCC1(CC(=O)O)CC1)c1cccc(/C=C/c2ccc3ccc(Cl)cc3n2)c1 [Montelukast] | 925 nM | – | – | – | – | – |
| 0.50 nM | 3.28 ± 1.15 µM | 1780 ± 770 nM | O=C(c1ccc(OCCN2CCCCC2)cc1)c1c(-c2ccc(O)cc2)sc2cc(O)ccc12 [Raloxifene] | 1.05 nM | – | 2.15 ± 0.9 µM | 0.050 | – | – |
